Data taken from patent US20240228502A1, “2-PHENYLAMINO PYRROLOPYRIMIDINES AS ACK1 INHIBITORS” (H. LEE MOFFITT CANCER CENTER AND RESEARCH INSTITUTE, INC., priority 2021, published 2024).

Assays:
ACK1 [1] = biological target: T1, ACK1 (Homo sapiens, UniProt Q07912); test: DSF = Differential Scanning Fluorimetry, thermal shift; assay type: binding
MDA-MB-231 = test: Cell viability, MDA-MB-231; assay type: cell-based
UKE1 = test: Cell viability, UKE1; assay type: cell-based
ACK1 [2] = biological target: T1, ACK1; test: ACK1 inhibition (ACK1 IC50); assay type: biochemical
[3] = Homo sapiens, MDA-MB-231, MDA-MB-231

T1 sequence (Q07912 whole entry): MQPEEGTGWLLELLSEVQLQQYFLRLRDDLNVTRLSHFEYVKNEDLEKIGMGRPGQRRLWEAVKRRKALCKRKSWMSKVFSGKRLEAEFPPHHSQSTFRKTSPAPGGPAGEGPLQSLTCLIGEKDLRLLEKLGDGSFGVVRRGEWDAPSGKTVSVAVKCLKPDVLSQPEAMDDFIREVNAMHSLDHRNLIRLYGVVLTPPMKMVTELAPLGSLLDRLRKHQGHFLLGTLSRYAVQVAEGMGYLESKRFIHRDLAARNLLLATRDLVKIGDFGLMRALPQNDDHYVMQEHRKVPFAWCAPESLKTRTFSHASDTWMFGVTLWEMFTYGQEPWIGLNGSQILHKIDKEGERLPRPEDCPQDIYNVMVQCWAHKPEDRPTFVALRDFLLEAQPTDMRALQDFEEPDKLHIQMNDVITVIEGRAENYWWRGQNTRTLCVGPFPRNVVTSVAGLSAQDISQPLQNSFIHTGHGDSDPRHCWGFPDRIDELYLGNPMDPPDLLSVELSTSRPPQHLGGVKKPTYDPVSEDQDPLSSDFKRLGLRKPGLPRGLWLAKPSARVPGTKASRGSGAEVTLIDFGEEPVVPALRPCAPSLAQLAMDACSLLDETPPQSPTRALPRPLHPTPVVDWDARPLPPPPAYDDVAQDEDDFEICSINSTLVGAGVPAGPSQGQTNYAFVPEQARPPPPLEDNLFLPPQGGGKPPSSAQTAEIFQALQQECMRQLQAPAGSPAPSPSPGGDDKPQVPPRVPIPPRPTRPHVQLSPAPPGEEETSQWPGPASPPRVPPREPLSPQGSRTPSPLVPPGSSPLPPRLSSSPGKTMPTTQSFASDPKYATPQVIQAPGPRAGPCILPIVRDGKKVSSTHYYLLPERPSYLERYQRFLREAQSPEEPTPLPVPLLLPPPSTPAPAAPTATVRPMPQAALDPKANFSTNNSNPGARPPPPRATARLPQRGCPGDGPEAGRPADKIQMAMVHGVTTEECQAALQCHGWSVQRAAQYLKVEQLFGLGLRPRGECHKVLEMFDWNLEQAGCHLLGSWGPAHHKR

| Structure (SMILES) | DSF (ΔTm (° C.)) (ACK1 [1]) [°C] | IC50 (ACK1 [2]) [nM] | also measured |
| --- | --- | --- | --- |
| COc1cc(N2CCN(C)CC2)c(F)cc1Nc1ncc2ccn(-c3ccc(S(=O)(=O)NC(C)C)cc3)c2n1 | 4.4 | – | – |
| CC(C)S(=O)(=O)Nc1cccc(-n2ccc3cnc(Nc4ccc(N5CCN(C)CC5)c(OCCO)c4)nc32)c1 | 6.4 | < 250 | EC50 (MDA-MB-231; [3]): 151 nM; EC50 (UKE1; UKE1, UKE1): 390 nM |
| COc1cc(N2CCN(C)CC2)c(F)cc1Nc1ncc2ccn(CCc3ccc(F)cc3)c2n1 | – | < 250 | – |
| CN1CCN(c2ccc(Nc3ncc4ccn(CC5CCCO5)c4n3)cc2OC2CCCC2)CC1 (stereo not drawn) | – | < 250 | EC50 (MDA-MB-231; [3]): 2100 nM; EC50 (MDA-MB-231; MDA-MB-231): 1050 nM; EC50 (UKE1; UKE1, UKE1): 2100 nM |
| CN1CCN(c2cc(Cl)c(Nc3ncc4ccn(CC5CCOCC5)c4n3)cc2F)CC1 | 6.4 | < 250 | – |
| COc1cc(N2CCN(C)CC2)c(F)cc1Nc1ncc2ccn(-c3cccc(N4CCCS4(=O)=O)c3)c2n1 | – | < 250 | – |
| COc1cc(N2CCN(C)CC2)c(F)cc1Nc1ncc2ccn(C[C@H]3CCCO3)c2n1 | – | < 250 | – |
| CN1CCN(c2ccc(Nc3ncc4ccn(-c5cccc(N6CCCS6(=O)=O)c5)c4n3)cc2F)CC1 | – | < 250 | EC50 (MDA-MB-231; [3]): 840 nM; EC50 (UKE1; UKE1, UKE1): 55 nM |
| Cc1cn(CC2CCCO2)c2nc(Nc3ccc(N4CCN(C)CC4)c(OC(C)C)c3)ncc12 (stereo not drawn) | – | < 250 | – |
| CN1CCN(c2ccc(Nc3ncc4ccn(CC5CCCO5)c4n3)cc2OC2CCC2)CC1 (stereo not drawn) | – | < 250 | EC50 (MDA-MB-231; [3]): 1500 nM; EC50 (MDA-MB-231; MDA-MB-231): 1710 nM; EC50 (UKE1; UKE1): 1500 nM; EC50 (UKE1; UKE1, UKE1): 1720 nM |
| CC(C)S(=O)(=O)Nc1ccc(-n2ccc3cnc(Nc4ccc(N5CCN(C)CC5)c(OCCO)c4)nc32)cc1 | 5.3 | – | – |
| CC(C)S(=O)(=O)Nc1cccc(-n2ccc3cnc(Nc4cc(F)c(N5CCN(C)CC5)cc4Cl)nc32)c1 | – | < 250 | – |
| CN1CCN(c2cccc(Nc3ncc4ccn(CC5CCCO5)c4n3)c2)CC1 (stereo not drawn) | – | < 250 | – |
| Cc1cn(CC2CCOCC2)c2nc(Nc3ccc(N4CCN(C)CC4)c(OC(C)C)c3)ncc12 | – | < 250 | – |
| CN1CCN(c2ccc(Nc3ncc4ccn(CC5CCCO5)c4n3)c(OC3CCC3)c2)CC1 (stereo not drawn) | – | < 250 | – |
| COc1cc(Nc2ncc3ccn(-c4cccc(NS(=O)(=O)C(C)C)c4)c3n2)ccc1N1CCN(C)CC1 | 6.4 | < 250 | EC50 (MDA-MB-231; [3]): 231 nM; EC50 (UKE1; UKE1, UKE1): 110 nM |
| CC(C)S(=O)(=O)Nc1cccc(-n2ccc3cnc(Nc4ccc(N5CCN(C)CC5)c(F)c4)nc32)c1 | 4.5 | < 250 | EC50 (MDA-MB-231; [3]): 462 nM; EC50 (UKE1; UKE1, UKE1): 74 nM |
| CN1CCN(c2ccc(Nc3ncc4ccn(CC5CCOCC5)c4n3)cc2)CC1 | – | < 250 | – |
| CN1CCN(c2cc(Cl)c(Nc3ncc4ccn(CC5CCCO5)c4n3)cc2F)CC1 (stereo not drawn) | – | < 250 | – |
| COc1cc(N2CCN(C)CC2)ccc1Nc1ncc2ccn(-c3cccc(NS(=O)(=O)C(C)C)c3)c2n1 | 7.6 | < 250 | EC50 (MDA-MB-231; [3]): 5150 nM; EC50 (UKE1; UKE1, UKE1): 2700 nM |
| CN1CCN(c2ccc(Nc3ncc4ccn(-c5ccc(N6CCCS6(=O)=O)cc5)c4n3)cc2F)CC1 | 5.6 | – | – |
| Cc1cc(N2CCN(C)CC2)c(F)cc1Nc1ncc2ccn(-c3ccc(S(=O)(=O)NC(C)C)cc3)c2n1 | 7.7 | – | – |

| Structure (SMILES) | DSF (ΔTm (° C.)) (ACK1 [1]) [°C] | IC50 (ACK1 [2]) [nM] | also measured |
| --- | --- | --- | --- |
| CN1CCN(c2ccc(Nc3ncc4ccn(C[C@H]5CCCO5)c4n3)cc2F)CC1 | – | < 250 | – |
| COc1cc(N2CCN(C)CC2)ccc1Nc1ncc2ccn(-c3ccc(S(=O)(=O)NC(C)C)cc3)c2n1 | 8.1 | – | – |
| COc1cc(Nc2ncc3ccn(CC4CCCO4)c3n2)ccc1-c1cnn(C)c1 (stereo not drawn) | – | < 250 | – |
| CC(C)Oc1cc(Nc2ncc3ccn(C[C@H]4CCCO4)c3n2)ccc1N1CCN(C)CC1 | 5.3 | < 250 | EC50 (MDA-MB-231; [3]): 1100 nM; EC50 (UKE1; UKE1, UKE1): 1000 nM |
| CC(C)Oc1cc(Nc2ncc3ccn(CCc4ccccc4)c3n2)ccc1N1CCN(C)CC1 | 4.5 | < 250 | EC50 (MDA-MB-231; [3]): 3420 nM; EC50 (UKE1; UKE1, UKE1): 1800 nM |
| COc1cc(N2CCN(C)CC2)c(F)cc1Nc1ncc2ccn(-c3cccc(N4CCCCS4(=O)=O)c3)c2n1 | – | < 250 | EC50 (MDA-MB-231; [3]): 3400 nM; EC50 (UKE1; UKE1, UKE1): 1300 nM |
| COc1cc(N2CCN(C)CC2)c(F)cc1Nc1ncc2ccn(CCc3ccccc3Cl)c2n1 | – | < 250 | – |
| COc1cc(N2CCN(C)CC2)ccc1Nc1ncc2ccn(CC3CCOCC3)c2n1 | – | < 250 | – |
| CC(C)Oc1cc(Nc2ncc3c(F)cn(CC4CCCO4)c3n2)ccc1C1CCN(C)CC1 (stereo not drawn) | – | < 250 | – |
| CC(C)Oc1cc(Nc2ncc3ccn(CC4CCOCC4)c3n2)ccc1N1CCN(C)CC1 | – | < 250 | EC50 (MDA-MB-231; [3]): 3500 nM; EC50 (UKE1; UKE1, UKE1): 3100 nM |
| CC(C)S(=O)(=O)Nc1ccc(-n2ccc3cnc(Nc4ccc(N5CCN(C)CC5)c(F)c4)nc32)cc1 | 6.1 | – | – |
| CC(C)Oc1cc(Nc2ncc3ccn(-c4cccc(NS(=O)(=O)C(C)C)c4)c3n2)ccc1-c1cnn(C)c1 | – | < 250 | – |
| CN1CCN(c2ccc(Nc3ncc4ccn(CC5CCCO5)c4n3)cc2OCCO)CC1 (stereo not drawn) | 5.3 | < 250 | EC50 (MDA-MB-231; [3]): 720 nM; EC50 (MDA-MB-231; MDA-MB-231): 1280 nM; EC50 (UKE1; UKE1): 710 nM; EC50 (UKE1; UKE1, UKE1): 1280 nM |
| CN1CCN(c2ccc(Nc3ncc4ccn(CC5CCCO5)c4n3)cc2)CC1 (stereo not drawn) | – | < 250 | – |
| COc1cc(N2CCN(C)CC2)c(F)cc1Nc1ncc2ccn(-c3ccc(N4CCCS4(=O)=O)cc3)c2n1 | 5.2 | < 250 | EC50 (MDA-MB-231; [3]): 3940 nM; EC50 (UKE1; UKE1, UKE1): 1400 nM |
| CC(C)Oc1cc(Nc2ncc3ccn(-c4cccc(NS(=O)(=O)C(C)C)c4)c3n2)ccc1N1CCN(C)CC1 | 5.2 | < 250 | EC50 (MDA-MB-231; [3]): 164 nM; EC50 (UKE1; UKE1, UKE1): 310 nM |
| Cn1cc(-c2ccc(Nc3ncc4ccn(CC5CCCO5)c4n3)cc2)cn1 (stereo not drawn) | – | < 250 | – |
| COc1cc(Nc2ncc3c(C)cn(CC4CCOCC4)c3n2)ccc1-c1cnn(C)c1 | – | < 250 | – |
| COc1c(Nc2ncc3ccn(-c4ccc(NS(=O)(=O)C(C)C)cc4)c3n2)cc(F)c(N2CCN(C)CC2)c1F | – | < 250 | – |
| Cc1cn(CC2CCCO2)c2nc(Nc3ccc(-c4cnn(C)c4)c(OC(C)C)c3)ncc12 (stereo not drawn) | 2.1 | < 500 | – |
| CN1CCN(c2ccc(Nc3ncc4ccn(CC5CCOCC5)c4n3)cc2F)CC1 | – | < 250 | – |
| COc1cc(N2CCN(C)CC2)ccc1Nc1ncc2ccn(CC3CCCO3)c2n1 (stereo not drawn) | – | < 250 | – |

| Structure (SMILES) | DSF (ΔTm (° C.)) (ACK1 [1]) [°C] | IC50 (ACK1 [2]) [nM] | also measured |
| --- | --- | --- | --- |
| CC(C)Oc1cc(Nc2ncc3ccn(CC4CCCO4)c3n2)ccc1N1CCN(C)CC1 (stereo not drawn) | – | < 250 | EC50 (MDA-MB-231; [3]): 2000 nM; EC50 (UKE1; UKE1, UKE1): 1100 nM |
| COc1cc(N2CCN(C)CC2)c(F)cc1Nc1ncc2ccn(CCc3ccccc3)c2n1 | – | < 250 | – |
| CC(C)COc1cc(Nc2ncc3ccn(CC4CCCO4)c3n2)ccc1N1CCN(C)CC1 (stereo not drawn) | – | < 250 | – |
| CN1CCN(c2ccc(Nc3ncc4ccn(CC5CCOCC5)c4n3)c(OC3CCC3)c2)CC1 | – | < 250 | – |
| CC(C)Oc1cc(N2CCN(C)CC2)ccc1Nc1ncc2ccn(CCc3ccccc3)c2n1 | – | < 1000 | – |
| COc1cc(N2CCN(C)CC2)ccc1Nc1ncc2c(F)cn(CC3CCCO3)c2n1 (stereo not drawn) | – | < 250 | – |
| COc1cc(N2CCN(C)CC2)c(F)cc1Nc1ncc2ccn(CC3CCOCC3)c2n1 | – | < 250 | EC50 (MDA-MB-231; [3]): > 10000 nM; EC50 (UKE1; UKE1, UKE1): > 10000 nM |
| COc1c(Nc2ncc3ccn(CC4CCOCC4)c3n2)cc(F)c(N2CCN(C)CC2)c1F | – | > 1000 | – |
| COc1cc(N2CCN(C)CC2)ccc1Nc1ncc2ccn(-c3ccc(NS(=O)(=O)C(C)C)cc3)c2n1 | 6.5 | – | – |
| COc1cc(Nc2ncc3ccn(-c4cccc(NS(=O)(=O)C(C)C)c4)c3n2)ccc1-c1cnn(C)c1 | – | < 250 | – |
| COc1cc(N2CCN(C)CC2)c(F)cc1Nc1ncc2ccn(-c3cccc(NS(=O)(=O)C(C)C)c3)c2n1 | 4.8 | < 250 | EC50 (MDA-MB-231; [3]): 1580 nM; EC50 (UKE1; UKE1, UKE1): 940 nM |
| CC(C)Oc1cc(Nc2ncc3ccn(CCc4ccccc4)c3n2)ccc1-c1cnn(C)c1 | – | < 750 | – |
| COc1cc(N2CCN(C)CC2)c(F)cc1Nc1ncc2ccn(CC3CCCO3)c2n1 (stereo not drawn) | – | < 250 | – |
| Cc1cc(N2CCN(C)CC2)c(F)cc1Nc1ncc2ccn(-c3cccc(N4CCCCS4(=O)=O)c3)c2n1 | 6.2 | – | – |
| CN1CCN(c2cccc(Nc3ncc4ccn(CC5CCOCC5)c4n3)c2)CC1 | – | < 500 | – |
| Cn1cc(-c2ccc(Nc3ncc4ccn(CC5CCOCC5)c4n3)cc2)cn1 | – | < 250 | – |
| CN1CCN(c2cc(Cl)c(Nc3ncc4ccn(-c5cccc(N6CCCCS6(=O)=O)c5)c4n3)cc2F)CC1 | – | < 250 | – |
| Cc1cn(CC2CCCO2)c2nc(Nc3ccc(N4CCN(C)CC4)cc3)ncc12 (stereo not drawn) | – | < 250 | – |
| Cc1cc(N2CCN(C)CC2)c(F)cc1Nc1ncc2ccn(-c3ccc(NS(=O)(=O)C(C)C)cc3)c2n1 | 7.3 | – | – |
| COc1ccccc1CCn1ccc2cnc(Nc3cc(F)c(N4CCN(C)CC4)cc3OC)nc21 | – | < 250 | – |
| Cc1cn(CC2CCOCC2)c2nc(Nc3ccc(-c4cnn(C)c4)c(OC(C)C)c3)ncc12 | – | < 250 | – |
| COc1cc(N2CCN(C)CC2)c(F)cc1Nc1ncc2ccn(-c3ccc(NS(=O)(=O)C(C)C)cc3)c2n1 | 9.3 | – | – |
